Where two headings read alike, the source gives them in different places.
Assays:
[1] = target: T1, glutathione-S-transferase (GST) tagged LXRalpha LBD (ligand binding domain) (Homo sapiens, UniProt Q13133); assay: biochemical; conditions: for EC50: LXR alpha IP
T1 construct: purchased Invitrogen pv4655
T1 sequence (Q13133 209-447 limits assumed): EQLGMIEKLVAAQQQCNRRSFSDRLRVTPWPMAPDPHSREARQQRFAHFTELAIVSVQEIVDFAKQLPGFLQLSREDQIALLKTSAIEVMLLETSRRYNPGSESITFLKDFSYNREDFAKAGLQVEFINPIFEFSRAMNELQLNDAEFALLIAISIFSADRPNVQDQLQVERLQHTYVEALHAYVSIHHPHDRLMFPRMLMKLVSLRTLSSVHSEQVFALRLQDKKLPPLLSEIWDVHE
How it was run: (§1)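 LXR alpha- or beta-LBD was added to test compounds, then a mix of fluorescein-labelled coactivator peptide and terbium anti-GST antibody. After room-temperature incubation, TR-FRET was read on a filter-based reader.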

[2] = target: T2, glutathione-S-transferase (GST) tagged LXRbeta LBD (ligand binding domain) (Homo sapiens, UniProt P55055); assay: LanthaScreen TR-FRET Liver X Receptor Coactivator Assay, LXR beta; format: biochemical; conditions: for EC50: LXR beta IP, potency (Inflection Point), compound-induced co-activator recruitment, TR-FRET; for Emax: read-out: LXR beta actiivty at max dose, efficacy (% Emax) in relation to reference dual agonist T0901317
T2 construct: purchased Invitrogen pv4658
T2 sequence (P55055 222-460 limits assumed): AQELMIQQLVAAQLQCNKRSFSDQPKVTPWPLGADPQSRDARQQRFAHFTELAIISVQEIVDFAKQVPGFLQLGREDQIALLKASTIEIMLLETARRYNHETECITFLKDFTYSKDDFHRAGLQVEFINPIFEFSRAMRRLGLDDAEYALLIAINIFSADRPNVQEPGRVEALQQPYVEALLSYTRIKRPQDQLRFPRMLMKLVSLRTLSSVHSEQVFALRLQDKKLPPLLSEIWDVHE
How it was run: as §1

[3] = potency (Inflection Point), compound-induced co-activator recruitment, TR-FRET
[4] = read-out: LXR alpha actiivty at max dose, efficacy (% Emax) in relation to reference dual agonist T0901317

Compound | EC50 [1, 3] [µM] | Emax [1, 4] [%] | EC50 [2] [µM] | Emax [2] [%] | LXR alpha IP [1] | Emax ([1]; read-out: LXR alpha actiivty at max dose) [%] | LXR alpha IP [1, 3]
CNC(=O)c1ccc(OCCCCC2CCN(C(=O)[C@](O)(c3cccc(OC)c3)C(F)(F)F)CC2)cc1Cl (single isomer, unassigned) [Example 8-18, (R or S)-2-chloro-N-methyl-4-(4-(1-(3,3,3-trifluoro-2-hydroxy-2-(3-methoxyphenyl)propanoyl)piperidin-4-yl)butoxy) benzamide] | 0.742 | 31 | 0.014 | 91 | – | – | –
CN(C)C(=O)c1ccc(OCCCC2CCN(C(=O)[C@](O)(c3ccccc3)C(F)(F)F)CC2)nc1Cl (single isomer, unassigned) [Example 3-20] | 2.29 | 28 | 0.025 | 74 | – | – | –
COc1cccc(C(O)(C(=O)N2CCC(CC(C)CC(C)Oc3ccc(C(=O)N(C)C)c(Cl)c3)CC2)C(F)(F)F)c1 (single isomer, unassigned) [Example 30-1, 2-chloro-N,N-dimethyl-4-(4-methyl-5-(1-((R or S)-3,3,3-trifluoro-2-hydroxy-2-(3-methoxyphenyl)propanoyl)piperidin-4-yl)pentan-2-yloxy)benzamide] | – | – | 0.099 | 84 | No IP | 8 | –
CN(C)C(=O)c1ccc(OCCC2CC23CCN(C(=O)C(C)(C)c2ccccc2)CC3)nc1Cl (stereo not drawn) [Example 15-3, 2-chloro-N,N-dimethyl-6-(2-(6-(2-methyl-2-phenylpropanoyl)-6-azaspiro[2.5]octan-1-yl)ethoxy)nicotinamide] | 0.202 | 67 | 0.005 | 102 | – | – | –
O=C(c1ccc(OCCCCC2CCN(C(=O)C(O)(c3ccccc3)C(F)(F)F)CC2)cc1Cl)N1CC(F)(F)C1 (single isomer, unassigned) [Example 8-4, (R or S)-1-(4-(4-(3-chloro-4-(3,3-difluoroazetidine-1-carbonyl)phenoxy)butyl)piperidin-1-yl)-3,3,3-trifluoro-2-hydroxy-2-phenylpropan-1-one] | 0.048 | 18 | 0.012 | 60 | – | – | –
CN(C)C(=O)c1ccc(OCCC2CC23CCN(C(=O)Cc2cccc(Br)c2)CC3)cc1Cl (single isomer, unassigned) [Example 12-3, (R or S)-4-(2-(6-(2-(3-bromophenyl)acetyl)-6-azaspiro[2.5]octan-1-yl)ethoxy)-2-chloro-N,N-dimethylbenzamide] | – | 1 | 0.153 | 28 | – | – | No IP
CC(C)Oc1cccc(C(O)(C(=O)N2CCC(CCCCOc3ccc(C(=O)N(C)C)c(Cl)c3)CC2)C(F)(F)F)c1 (single isomer, unassigned) [Example 3-11, (S or R)-2-chloro-N,N-dimethyl-4-(4-(1-(3,3,3-trifluoro-2-hydroxy-2-(3-isopropoxyphenyl)propanoyl)piperidin-4-yl)butoxy)benzamide] | 0.614 | 21 | 0.009 | 80 | – | – | –
O=C(c1ccc(OCCCCC2CCN(C(=O)[C@](O)(c3ccccc3)C(F)(F)F)CC2)cc1Cl)N1CCC[C@@H]1CO (single isomer, unassigned) [Example 8-8, (R or S)-1-(4-(4-(3-chloro-4-((R or S)-2-(hydroxymethyl)pyrrolidine-1-carbonyl)phenoxy)butyl)piperidin-1-yl)-3,3,3-trifluoro-2-hydroxy-2-phenylpropan-1-one] | 0.653 | 27 | 0.021 | 44 | – | – | –
CNC(=O)c1ccc(OCC[C@@H]2C[C@@H]2C2CCN(C(=O)[C@](O)(c3cc(F)cc(F)c3)C(F)(F)F)CC2)cc1Cl (single isomer, unassigned) [Example 10-3, 2-chloro-4-(2-((1S,2R or 1R, 2S)-2-(1-((R or S)-2-(3,5-difluorophenyl)-3,3,3-trifluoro-2-hydroxypropanoyl)piperidin-4-yl)cyclopropyl)ethoxy)-N-methylbenzamide] | 0.028 | 63 | 0.002 | 116 | – | – | –
